Like-named read-outs stand apart in the source and are kept apart here. Ends that are not written are not given here.
Assays:
[1] = systemically and locally induced sepsis models; Zisman 1997, Bone-Larson 2000; cited from earlier work
primary HUVEC = experiment: TaqMan real-time RT-PCR of gene induction in primary HUVEC; format: cell-based, human; conditions: primary endothelial cells, quantitative PCR, FIG. 3A
Protocol: TaqMan Real Time PCR. For TaqMan (Applied Biosystems) real-time RT-PCR 4 μg total cellular RNA from stimulated primary HUVEC was reverse transcribed followed by RNAse treatment using the Superscript Kit (Invitrogen). TaqMan probes were custom designed for genes of interests. All samples were normalized with human GAPDH probes and primers obtained from Applied Biosystems.

[2] = test system: human umbilical vein endothelial cells HUVEC-C; format: cell-based
From the text: Microarray Analysis. […] Total RNA was isolated followed by reverse transcription. Purified double stranded cDNA was in vitro transcribed in the presence of biotinylated dUTP and dCTP, fragmented cRNA was hybridized to the HG-U95Av2 array (Affymetrix, Santa Clara, Calif.), followed by staining with streptavidin-phycoerythrin. Arrays were scanned and analyzed using GeneChip3.1 software. […] An average fold-induction for the three independent experiments was obtained by calculating the means of the logarithm of the individual fold-increases for each agonist.

[3] = HUVEC-C, 90 min, genes represented in FIG. 2 A-C
[4] = HUVEC-C, 90 min, higher variability, PAR1 enhanced (<1.3 fold with PAR2 agonist)
[5] = HUVEC-C, 90 min, higher variability, PAR2 enhanced (<1.3 fold with PAR1 agonist)
[6] = HUVEC-C, 90 min, higher variability, genes not induced by APC (<1.3 fold with APC)

For “MCP-1: monocyte chemoattractant protein-1, chemokine administered in cited sepsis models”, the “Effect of administration in sepsis models” value [1] is given as “protective”.
For TFLLRNPNDK [PAR1], the “MCP-1 induction, time course” value (primary HUVEC) was “similarly induced”, the “Average fold induction, AKAP12 U81607 A-KINASE ANCHOR PROTEIN 12, GRAVIN” value [2] was 1.39 fold and the “Average fold induction, BCL2A1 U27467 BCL2 RELATED PROTEIN A1, BFL-1” value [2] was 2.04 fold. The “Average fold induction, BIRC3 U45878 HUMAN INHIBITOR OF APOPTOSIS PROTEIN (IAP) 1” value [2] was 2.39 fold, the “Average fold induction, DUSP1 X68277 DUAL-SPECIFICITY PHOSPHATASE 1” value [2] was 2.05 fold and the “Average fold induction, DUSP5 U15932 DUAL-SPECIFICITY PHOSPHATASE 5” value [2] was 2.93 fold. The “Average fold induction, GADD45B AF078077 GROWTH ARREST- AND DNA DAMAGE-INDUCIBLE GENE GADD45, BETA” value [2] was 1.26 fold, the “Average fold induction, IER3 S81914 IMMEDIATE-EARLY RESPONSE 3” value [2] was 1.30 fold and the “Average fold induction, NAB1 AF045451 NGFIA-BINDING PROTEIN” value [2] was 1.49 fold. The “Average fold induction, NFKBIA M69043 NUCLEAR FACTOR OF KAPPA LIGHT CHAIN GENE ENHANCER IN B CELLS INHIBITOR, ALPHA” value [2] was 1.38 fold, the “Average fold induction, TNFAIP3 M59465 TUMOR NECROSIS FACTOR-ALPHA-INDUCED PROTEIN 3, A20” value [2] was 1.39 fold and the “Average fold induction, ZFP36 M92843 ZINC FINGER PROTEIN 36, TRISTETRAPROLIN (TTP)” value [2] was 1.98 fold. The “Average Induction, A1288757 qm11h01.x1 Homo sapiens cDNA” value [2, 3] was 1.8 fold, the “Average Induction, A1670788 tz10c02.x1 Homo sapiens cDNA” value [2, 3] was 1.5 fold and the “Average Induction, A1985272 ws06b05.x1 Homo sapiens cDNA” value [2, 3] was 1.3 fold. The “Average Induction, A8022718 Homo sapiens m.RNA for DEPP (decidual protein induced by progesterone)” value [2, 3] was 1.3 fold, the “Average Induction, AB004066 Homo sapiens mRNA for DEC1” value [2, 3] was 1.5 fold and the “Average Induction, AB014569 Homo sapiens mRNA for K1AA0669 protein” value [2, 3] was 1.3 fold. The “Average Induction, AF017786 Homo sapiens phosphatidic acid phosphohydrolase homolog (Dri42)” value [2, 3] was 1.6 fold, the “Average Induction, AF022375 Homo sapiens vascular endothelial growth factor mRNA” value [2, 3] was 1.5 fold and the “Average Induction, AF039843 Homo sapiens Sprouty 2 (SPRY2) mRNA” value [2, 3] was 1.6 fold. The “Average Induction, AF045451 Homo sapiens transcriptional regulatory protein p54” value [2, 3] was 1.5 fold, the “Average Induction, AF050110 Homo sapiens TGFb inducible early protein and early growth response protein alpha genes” value [2, 3] was 1.7 fold and the “Average Induction, AF054182 Homo sapiens mitochondrial processing peptidase beta-subunit mRNA” value [2, 3] was 1.8 fold. The “Average Induction, AF068197 Homo sapiens BCE-1 mRNA” value [2, 3] was 1.5 fold, the “Average Induction, AF078077 Homo sapiens growth arrest and DNA-damage-inducible protein GADD45beta” value [2, 3] was 1.3 fold and the “Average Induction, AJ005821 Homo sapiens mRNA for X-like 1 protein” value [2, 3] was 2.4 fold. For the same substance, the “Average Induction, AL023584 Human DNA sequence from clone 67K17 on chromosome 6q24.1-24.3.” value [2, 3] was 1.8 fold, the “Average Induction, AL031432 Human DNA sequence from clone 465N24 on chromosome 1p35.1-36.13.” value [2, 3] was 1.9 fold and the “Average Induction, AL050078 Homo sapiens mRNA; cDNA DKFZp566G0746” value [2, 3] was 1.6 fold. The “Average Induction, AL096858 Novel human gene mapping to chomosome 1” value [2, 3] was 1.3 fold, the “Average Induction, Cluster Incl M22489 Human bone morphogenetic protein 2A (BMP-2A)” value [2, 3] was 2.4 fold and the “Average Induction, Cluster Incl U12767 Human mitogen induced nuclear orphan receptor (MINOR)” value [2, 3] was 2.4 fold. The “Average Induction, D15050 Human mRNA for transcription factor AREB6” value [2, 3] was 2.1 fold, the “Average Induction, D50917 Human mRNA for KIAA0127 gene” value [2, 3] was 1.4 fold and the “Average Induction, D78579 Homo sapiens mRNA for neuron derived orphan receptor” value [2, 3] was 2.6 fold. The “Average Induction, D86181 Homo sapiens DNA for galactocerebrosidase” value [2, 3] was 1.9 fold, the “Average Induction, Guanine Nucleotide Exchange Factor 2” value [2, 3] was 1.4 fold and the “Average Induction, J02931 Human placental tissue factor (two forms) mRNA” value [2, 3] was 3.0 fold. For the same substance, the “Average Induction, J04076 Human early growth response 2 protein (EGR2) mRNA” value [2, 3] was 2.0 fold, the “Average Induction, J04111 Human c-jun proto oncogene (JUN)” value [2, 3] was 1.7 fold and the “Average Induction, L05072 Homo sapiens interferon regulatory factor 1 gene” value [2, 3] was 1.9 fold. The “Average Induction, L19871 Human activating transcription factor 3 (ATF3)” value [2, 3] was 2.5 fold, the “Average Induction, L43821 Homo sapiens enhancer of filamentation (HEF1) mRNA” value [2, 3] was 1.4 fold and the “Average Induction, M22489/FEATURE Human bone morphogenetic protein 2A (BMP-2A)” value [2, 3] was 2.3 fold. For the same substance, the “Average Induction, M26683 Human interferon gamma treatment inducible mRNA” value [2, 3] was 1.6 fold, the “Average Induction, M28211 Homo sapiens GTP-binding protein (RAB4) mRNA” value [2, 3] was 2.0 fold and the “Average Induction, M28225 Human JE gene encoding a monocyte secretory protein [= MCP-1]” value [2, 3] was 2.1 fold. For the same substance, the “Average Induction, M29039 Human transactivator (jun-B) gene” value [2, 3] was 2.8 fold, the “Average Induction, M30474 Human kidney gamma-glutamyl transpeptidase type II mRNA” value [2, 3] was 2.7 fold and the “Average Induction, M31516 Human decay-accelerating factor mRNA” value [2, 3] was 1.7 fold. The “Average Induction, M36820 Human cytokine (GRO-beta) mRNA” value [2, 3] was 2.1 fold, the “Average Induction, M59465 Human tumor necrosis factor alpha inducible protein A20 mRNA” value [2, 3] was 1.4 fold and the “Average Induction, M60278 Human heparin-binding EGF-like growth factor mRNA” value [2, 3] was 3.6 fold. For the same substance, the “Average Induction, M60721 Human homeobox gene” value [2, 3] was 2.8 fold, the “Average Induction, M69043 Homo sapiens MAD-3 mRNA encoding 1kB-like activity” value [2, 3] was 1.4 fold and the “Average Induction, M92843 H.sapiens zinc finger transcriptional regulator mRNA” value [2, 3] was 2.0 fold. The “Average Induction, S81439 EGR alpha=early growth response gene alpha” value [2, 3] was 1.8 fold, the “Average Induction, S81914 IEX-1=radiation-inducible immediate-early gene” value [2, 3] was 1.3 fold and the “Average Induction, U04636 Human cyclooxygenase-2 (hCox-2) gene” value [2, 3] was 1.3 fold. The “Average Induction, U07802 Human Tis1 1d gene” value [2, 3] was 1.5 fold, the “Average Induction, U08015 Human NF-ATc mRNA” value [2, 3] was 1.4 fold and the “Average Induction, U12767/FEATURE Human mitogen induced nuclear orphan receptor (MINOR)” value [2, 3] was 4.9 fold. For the same substance, the “Average Induction, U15932 Human dual-specificity protein phosphatase” value [2, 3] was 2.9 fold, the “Average Induction, U25997 Homo sapiens stanniocalcin precursor (STC) mRNA” value [2, 3] was 1.6 fold and the “Average Induction, U43142 Human vascular endothelial growth factor related protein VRP” value [2, 3] was 1.4 fold. For the same substance, the “Average Induction, U59863 Human TRAF-interacting protein I-TRAF mRNA” value [2, 3] was 1.3 fold, the “Average Induction, U75697 Human transcription regulator RPD3-2B mRNA” value [2, 3] was 2.7 fold and the “Average Induction, U79259 Human clone 23945 mRNA” value [2, 3] was 1.5 fold. For the same substance, the “Average Induction, U81607 Homo sapiens gravin mRNA” value [2, 3] was 1.4 fold, the “Average Induction, W27545 32c4 Homo sapiens cDNA” value [2, 3] was 1.2 fold and the “Average Induction, X51345 Human jun-B mRNA for JUN-B protein” value [2, 3] was 1.8 fold. The “Average Induction, X63741 H.sapiens pilot mRNA” value [2, 3] was 1.9 fold, the “Average Induction, X68277 H.sapiens CL 100 mRNA for protein tyrosine phosphatase” value [2, 3] was 2.1 fold and the “Average Induction, X75918 H.sapiens mRNA for NOT” value [2, 3] was 2.3 fold. For the same substance, the “Average Induction, X89066 H.sapiens mRNA for TRPC1 protein” value [2, 3] was 2.6 fold, the “Average Induction, X94216 H.sapiens mRNA for VEGF-C protein” value [2, 3] was 1.4 fold and the “Average Induction, Y00630 Human mRNA for Arg-Serpin (plasminogen activator-inhibitor 2, PAI-2)” value [2, 3] was 2.2 fold. For the same substance, the “Average Induction, Z25821 H.sapiens gene for mitochondrial dodecenoyl-CoA delta-isomerase” value [2, 3] was 1.1 fold, the “Average Induction, Z48054 H.sapiens mRNA for peroxisomal targeting signal 1 (SKL type) receptor” value [2, 3] was 2.0 fold and the “Average Induction, L13740 Human TR3 orphan receptor mRNA” value ([2]; HUVEC-C, 90 min, genes represented in FIG. 2 A-C, first probe set) was 4.8 fold. The “Average Induction, L13740 Human TR3 orphan receptor mRNA” value ([2]; HUVEC-C, 90 min, genes represented in FIG. 2 A-C, second probe set) was 4.7 fold, the “Average Induction, A1186701 qe82d12.x1 Homo sapiens cDNA” value [2, 4] was 1.9 fold and the “Average Induction, A1953789 wx69d10.x1 Homo sapiens cDNA” value [2, 4] was 1.3 fold. For the same substance, the “Average Induction, AF024710 Homo sapiens vascular endothelial growth factor (VEGF)” value [2, 4] was 1.4 fold, the “Average Induction, AL035297 H.sapiens gene from PAC 747L4” value [2, 4] was 1.7 fold and the “Average Induction, M22299 Human T-plastin polypeptide mRNA” value [2, 4] was 1.6 fold. The “Average Induction, U35735 Human RACH1 (RACH1) mRNA” value [2, 4] was 1.8 fold, the “Average Induction, U87460 Human putative endothelin receptor type B-like protein mRNA” value [2, 4] was 1.4 fold and the “Average Induction, A1038821 ox96d03.x1 Homo sapiens cDNA” value [2, 5] was 1.2 fold. The “Average Induction, AC004475 Homo sapiens chromosome 19, cosmid F23858” value [2, 5] was 1.2 fold, the “Average Induction, AL049354 Homo sapiens mRNA; cDNA DKFZp566E183” value [2, 5] was 1.1 fold and the “Average Induction, L38696 Homo sapiens autoantigen p542 mRNA” value [2, 5] was 1.0 fold. The “Average Induction, U27655 Human RGP3 mRNA” value [2, 5] was 1.2 fold, the “Average Induction, U53831 Homo sapiens interferon regulatory factor 7B” value [2, 5] was 1.1 fold and the “Average Induction, U58334 Human Bcl2, p53 binding protein Bbp/53BP2 (BBP/53BP2) mRNA” value [2, 5] was 1.1 fold. For the same substance, the “Average Induction, U65093 Human msg1-related gene 1 (mrg1) mRNA” value [2, 5] was 1.3 fold, the “Average Induction, W26851 17b12 Homo sapiens cDNA” value [2, 5] was 1.2 fold and the “Average Induction, Y13115 Homo sapiens mRNA for serine/threonine protein kinase SAK” value [2, 5] was 1.2 fold. The “Average Induction, Z25821 H.sapiens gene for mitochondrial dodecenoyl-CoA delta-isomerase” value [2, 5] was 1.1 fold, the “Average Induction, AB028069 Homo sapiens mRNA for activator of S phase Kinase” value [2, 6] was 2.0 fold and the “Average Induction, D38537 Human mRNA for protoporphyrinogen oxidase” value [2, 6] was 1.3 fold. For the same substance, the “Average Induction, M83667 Human NF-IL6-beta protein” value [2, 6] was 1.4 fold, the “Average Induction, U78082 Human RNA polymerase transcriptional regulation mediator (h-MED6) mRNA” value [2, 6] was 1.9 fold and the “Average Induction, U85267 Homo sapiens down syndrome candidate region 1 (DSCR1) gene” value [2, 6] was 1.6 fold. For the same substance, the “Induction of the MCP-1 transcript (microarray, text)” value ([2]; endothelial cells, 90 minutes) was “only induced by the PAR1 agonist”.

— patent US20040033517A1, “Compositions and methods relating to endothelial cell signaling using the protease activated receptor (PAR1)” (priority 2002, published 2004)
